Here are results for 16 compounds from patent publication US20120190666A1, “Heteroaryl Compounds as PIKK Inhibitors” (Amgen Inc., priority 2009, published 2012).

Each structure is given as a SMILES string.

One assay has as its target mTOR (Homo sapiens, UniProt P42345). Briefly: mTOR LanthaScreen (TR-FRET, phosphorylation of 4EBP1). It counts as biochemical. Conditions: phosphorylation of GFP-4E-BP1, 10 μM ATP, 90 minutes. The procedure, abridged: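 Final reaction: 400 nM GFP-4E-BP1, 10 μM ATP, 0.15 μg/ml mTOR, compound 50 μM down to 23.84 pM (22-point 1:2 series) in 1% DMSO, buffer with 2 mM DTT; 90 min incubation.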

Assay [1] deals with phosphorylation of Akt at Serine 473 in U87 MG cells. Briefly: pAkt AlphaScreen (U87 cell). The assay is classed as cell-based. Conditions: Homo sapiens, U-87 MG, 2 h; pAkt at Serine 473, U87 MG cells, two hours with compound. The method, boiled down:
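U87 MG cells (5K per well, plated overnight) treated 2 h at 37 °C with compound, 25 μM to 11.9 pM final in 0.5% DMSO. Lysates assayed for Akt Ser473 phosphorylation with SureFire AlphaScreen, incubated overnight at room temperature; IC50 from percent of control.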
(In general: Alpha assays give light when donor and acceptor beads are brought close together.)

The term IC50 denotes the concentration that inhibits the measured activity by half. With `CC(=O)n1ccc(Nc2nc3cccnn3c2-c2cc(N)nc(C)n2)n1` [Cpd 67, N-(1-acetyl-1H-pyrazol-3-yl)-3-(6-amino-2-methyl-4-pyrimidinyl)imidazo[1,2-b]pyridazin-2-amine], the IC50 (at mTOR; in assay [1]) was 0.01 µM in each case.

Take `CCOC(=O)c1cc(Nc2cc[nH]n2)n(-c2cc(N)nc(C)n2)n1` [Cpd 15, ethyl 5-(1H-pyrazol-3-ylamino)-1-(6-amino-2-methylpyrimidin-4-yl)-1H-pyrazole-3-carboxylate]: the IC50 on mTOR is 0.144 µM; in assay [1], 0.11 µM.

As for `Cc1cc(Nc2cc[nH]n2)n(-c2cc(N)nc(C)n2)n1` [Cpd 18, 6-(5-(1H-pyrazol-3-ylamino)-3-methyl-1H-pyrazol-1-yl)-2-methylpyrimidin-4-amine], the results for the IC50 (at mTOR; in assay [1]) were 0.86 µM and 0.71 µM, respectively.

As to `CNc1nc(C)nc(-c2c(Nc3cc[nH]n3)nc3ccccn23)n1` [Cpd 3, 3-(4-methyl-6-(methylamino)-1,3,5-triazin-2-yl)-N-(1H-pyrazol-3-yl)imidazo[1,2-a]pyridin-2-amine], the IC50 at mTOR came to 0.053 µM; in assay [1], 0.05 µM.

Take `Cc1nc(N)nc(-c2c(Nc3cc[nH]n3)nc3ccccn23)n1` [Cpd 1, 3-(4-amino-6-methyl-1,3,5-triazin-2-yl)-N-(1H-pyrazol-3-yl)imidazo[1,2-a]pyridin-2-amine]: the results for the IC50 (against mTOR; in assay [1]) were 0.012 µM and 0.02 µM, respectively.

`Cc1nc(N)nc(-c2c(Nc3cc[nH]n3)nc3ccc(-c4ccc(C(=O)O)cc4C)cn23)n1` [Cpd 177, 4-(3-(4-amino-6-methyl-1,3,5-triazin-2-yl)-2-(1H-pyrazol-3-ylamino)imidazo[1,2-a]pyridin-6-yl)-3-methylbenzoic acid]: the IC50 on mTOR was 0.001 µM; in assay [1], 0.17 µM.

On to `Cc1nc(Nc2ccccc2F)cc(-c2c(Nc3cc[nH]n3)nc3cccnn23)n1` [Cpd 31, 3-(6-((2-fluorophenyl)amino)-2-methyl-4-pyrimidinyl)-N-1H-pyrazol-3-ylimidazo[1,2-b]pyridazin-2-amine], for which the half-inhibitory concentration (IC50) was 6.18 µM at mTOR and 0.79 µM in assay [1].

Regarding `Cc1nc(N)nc(-c2c(Nc3cc[nH]n3)nc3ccc(-c4ccc(S(C)(=O)=O)cc4)cn23)n1` [Cpd 344, 3-(4-amino-6-methyl-1,3,5-triazin-2-yl)-6-(4-(methylsulfonyl)phenyl)-N-1H-pyrazol-3-ylimidazo[1,2-a]pyridin-2-amine], the IC50 came out at 0.08 µM against mTOR and 0.02 µM in assay [1].

On to `Cc1nc(N)cc(-c2c(Nc3ccn(C(=O)NCc4ccccc4)n3)nc3ccccn23)n1` [Cpd 222, 3-((3-(6-amino-2-methyl-4-pyrimidinyl)imidazo[1,2-a]pyridin-2-yl)amino)-N-benzyl-1H-pyrazole-1-carboxamide], for which the IC50 against mTOR was found to be 5.88 µM; in assay [1], 1.81 µM.

`CC(=O)Nc1cccc(-c2ccc3nc(Nc4cc[nH]n4)c(-c4nc(C)nc(N)n4)n3c2)c1` [Cpd 114, N-(3-(3-(4-amino-6-methyl-1,3,5-triazin-2-yl)-2-(1H-pyrazol-3-ylamino)imidazo[1,2-a]pyridin-6-yl)phenyl)acetamide]: the IC50 at mTOR is 0.01 µM; in assay [1], 0.03 µM.

In the case of `CC(=O)Nc1cc(-c2c(Nc3ccn(C)n3)nc3c(F)cccn23)nc(C)n1` [Cpd 63, N-(6-(8-fluoro-2-((1-methyl-1H-pyrazol-3-yl)amino)imidazo[1,2-a]pyridin-3-yl)-2-methyl-4-pyrimidinyl)acetamide], the half-inhibitory concentration (IC50) stood at 0.06 µM against mTOR and 0.05 µM in assay [1].

As to `Cc1nc(N)cc(-c2c(Nc3ccc4cc[nH]c4n3)nc3ccccn23)n1` [Cpd 41, 3-(6-amino-2-methyl-4-pyrimidinyl)-N-1H-pyrrolo[2,3-b]pyridin-6-ylimidazo[1,2-a]pyridin-2-amine], the IC50 (on mTOR; in assay [1]) was 0.4 µM in each case.

On to `CCNC(=O)Nc1ccc(Nc2nc3ccccn3c2-c2cc(N)nc(C)n2)cc1` [Cpd 40, 1-(4-((3-(6-amino-2-methyl-4-pyrimidinyl)imidazo[1,2-a]pyridin-2-yl)amino)phenyl)-3-ethylurea], for which the values for the IC50 (on mTOR; in assay [1]) were 0.01 µM and 0.06 µM, respectively.

`Cc1nc(N)nc(-c2c(Nc3cc[nH]n3)nc3cc(OCCN4CCCC4)ccn23)n1` [Cpd 188]: the IC50 was 0.36 µM against mTOR and 0.32 µM in assay [1].

In the case of `CNC(=O)c1cc(Nc2ccn[nH]2)n(-c2cc(N)nc(C)n2)n1` [Cpd 14, 5-(1H-pyrazol-5-ylamino)-1-(6-amino-2-methylpyrimidin-4-yl)-N-methyl-1H-pyrazole-3-carboxamide], the IC50 was found to be 0.12 µM on mTOR and 0.44 µM in assay [1].

Regarding `Cc1nc(Nc2ccc(N3CCOC(C)C3)nn2)cc(-c2c(Nc3cc[nH]n3)nc3cccnn23)n1` (centres unmarked) [Cpd 140, 3-(2-methyl-6-((6-(2-methyl-4-morpholinyl)-3-pyridazinyl)amino)-4-pyrimidinyl)-N-1H-pyrazol-3-ylimidazo[1,2-b]pyridazin-2-amine], the IC50 against mTOR is 0.11 µM; in assay [1], 0.09 µM.
